Data as given in ChEMBL document CHEMBL1201862, “PubChem BioAssay data set” (2004).
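Each compound was tested at five concentrations against cells in 96-well plates for 48 hours. GI50: concentration for 50% inhibition of growth.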 Calls of active or inactive are those of the source. No stated cut-off is given here; in the data, active = GI50 up to about 1.1 µM and inactive = higher.

How the values were obtained:
Assay in all cases: NCI tumour cell line growth inhibition, 48 h
OVCAR-3 = test system: OVCAR-3
HCC 2998 = test system: HCC 2998
LOX IMVI = test system: LOX IMVI
ACHN = test system: ACHN
MCF7 = test system: MCF7
COLO 205 = test system: COLO 205
RPMI-8226 = test system: RPMI-8226
EKVX = test system: EKVX
UO-31 = test system: UO-31
BT-549 = test system: BT-549
MDA-MB-231 = test system: MDA-MB-231
SW-620 = test system: SW-620
HT-29 = test system: HT-29
NCI-H522 = test system: NCI-H522
A549 = test system: A549
NCI-H226 = test system: NCI-H226
TK-10 = test system: TK-10
CCRF-CEM = test system: CCRF-CEM
OVCAR-5 = test system: OVCAR-5
SNB-19 = test system: SNB-19
Hs-578T = test system: Hs-578T
T47D = test system: T47D
U-251 = test system: U-251
HCT-15 = test system: HCT-15
SK-MEL-5 = test system: SK-MEL-5
SF-539 = test system: SF-539
OVCAR-4 = test system: OVCAR-4
IGROV-1 = test system: IGROV-1
SK-OV-3 = test system: SK-OV-3
Malme-3M = test system: Malme-3M
SF-295 = test system: SF-295
SNB-75 = test system: SNB-75
786-0 = test system: 786-0
SN12C = test system: SN12C
SK-MEL-28 = test system: SK-MEL-28
M14 = test system: M14
SF-268 = test system: SF-268
OVCAR-8 = test system: OVCAR-8
MDA-N = test system: MDA-N
CAKI-1 = test system: CAKI-1
PC-3 = test system: PC-3
DU-145 = test system: DU-145
KM12 = test system: KM12
UACC-257 = test system: UACC-257
HCT-116 = test system: HCT-116
HOP-62 = test system: HOP-62
MDA-MB-435 = test system: MDA-MB-435
SR = test system: SR
NCI-H460 = test system: NCI-H460
NCI-H23 = test system: NCI-H23
SK-MEL-2 = test system: SK-MEL-2
MOLT-4 = test system: MOLT-4
UACC-62 = test system: UACC-62
NCI/ADR-RES = test system: NCI/ADR-RES
HL-60 = test system: HL-60
HOP-92 = test system: HOP-92

Measured: GI50

c1ccc(-c2ccc(-c3cc4ccccc4[nH]3)cc2)cc1
inactive: OVCAR-3 > 100 µM | HCC 2998 > 100 µM | LOX IMVI > 100 µM | ACHN > 100 µM | MCF7 > 100 µM | COLO 205 > 100 µM | RPMI-8226 > 100 µM | EKVX > 100 µM | UO-31 > 100 µM | BT-549 > 100 µM | MDA-MB-231 > 100 µM | SW-620 > 100 µM | HT-29 > 100 µM | NCI-H522 60.3 µM | A549 > 100 µM | NCI-H226 > 100 µM | TK-10 > 100 µM | CCRF-CEM 87.7 µM | OVCAR-5 > 100 µM | SNB-19 > 100 µM | Hs-578T > 100 µM | T47D > 100 µM | U-251 > 100 µM | SK-MEL-5 > 100 µM | SF-539 > 100 µM | OVCAR-4 > 100 µM | IGROV-1 > 100 µM | SK-OV-3 > 100 µM | Malme-3M > 100 µM | SF-295 > 100 µM | SNB-75 > 100 µM | 786-0 > 100 µM | SN12C > 100 µM | SK-MEL-28 > 100 µM | M14 > 100 µM | SF-268 > 100 µM | OVCAR-8 > 100 µM | MDA-N > 100 µM | CAKI-1 61.7 µM | PC-3 > 100 µM | DU-145 > 100 µM | KM12 > 100 µM | UACC-257 > 100 µM | HCT-116 > 100 µM | HOP-62 > 100 µM | MDA-MB-435 > 100 µM | SR > 100 µM | NCI-H460 > 100 µM | NCI-H23 > 100 µM | SK-MEL-2 > 100 µM | MOLT-4 > 100 µM | UACC-62 > 100 µM | NCI/ADR-RES > 100 µM | HL-60 27.8 µM | HOP-92 > 100 µM
> 100 µM: HCT-15
